Measurements: PMC10945555, “Improving Activity of New Arylurea Agents against Multidrug-Resistant and Biofilm-Producing Staphylococcus epidermidis” (ACS Medicinal Chemistry Letters, 2024)
Converted amounts (≈) assume the structure as drawn.

Test system: clinical Staphylococcus epidermidis strains
Assay: Minimal bactericidal concentration (MBC), MBC/MIC
Type: cell-based
Experimental: 2.5 Evaluation of bacteriostatic/bactericidal properties […]
determining MBC (Minimal Bactericidal Concentration) values. The study was conducted in accordance with the guidelines of the Clinical and Laboratory Standards Institute (CLSI).13 The MBC value was assumed to be the concentration of the compound inhibiting the growth of strains in 99.9%. Then, the value of the MBC/MIC ratio was calculated to assess its bactericidal or bacteriostatic activity. […]

Q: How did the MBC (Staphylococcus epidermidis, read-out: Mean MBC) turn out when `O=C(Nc1cccc(Cl)c1)NC1CCN(CCC(Oc2ccc(C(F)(F)F)cc2)c2cccs2)CC1` (centres unmarked) [Compound 25] was run?
A: 29.2 µg/mL (≈ 54.2 µM)

Q: What about the MBC/MIC ratio (clinical S. epidermidis strains) of the same molecule?
A: 16

Q: What about the MBC/MIC (clinical strain 1 (Table S5)) of the same molecule?
A: 16

Q: What about the MBC/MIC (clinical strain 2 (Table S5)) of the same molecule?
A: 16

Q: What about the MBC/MIC (clinical strain 3 (Table S5)) of the same molecule?
A: 16

Q: What about the MBC/MIC (clinical strain 4 (Table S5)) of the same molecule?
A: 16

Q: What about the MBC/MIC (clinical strain 5 (Table S5)) of the same molecule?
A: 16

Q: And the MBC/MIC (clinical strain 6 (Table S5))?
A: 16

Q: And the MBC/MIC (clinical strain 7 (Table S5))?
A: 16

Q: And the MBC/MIC (clinical strain 8 (Table S5))?
A: 16

Q: What about the MBC/MIC (clinical strain 9 (Table S5)) of the same molecule?
A: 16

Q: What about the MBC/MIC (clinical strain 10 (Table S5)) of the same molecule?
A: 16

Q: And the MBC/MIC (clinical strain 11 (Table S5))?
A: 16

Q: And the MBC/MIC (clinical strain 12 (Table S5))?
A: 16

Q: What about the MBC/MIC (clinical strain 13 (Table S5)) of the same molecule?
A: 16

Q: And the MBC/MIC (clinical strain 14 (Table S5))?
A: 16

Q: And the MBC/MIC (clinical strain 15 (Table S5))?
A: 16

Q: And the MBC/MIC (clinical strain 16 (Table S5))?
A: 16

Q: What about the MBC/MIC (clinical strain 17 (Table S5)) of the same molecule?
A: 16

Q: And the MBC/MIC (clinical strain 18 (Table S5))?
A: 16

Q: What about the MBC/MIC (clinical strain 19 (Table S5)) of the same molecule?
A: 16

Q: What about the MBC/MIC (clinical strain 20 (Table S5)) of the same molecule?
A: 16

Q: And the MBC/MIC (clinical strain 21 (Table S5))?
A: 16

Q: And the MBC/MIC (clinical strain 22 (Table S5))?
A: 16

Q: What about the MBC/MIC (clinical strain 23 (Table S5)) of the same molecule?
A: 16

Q: What about the MBC/MIC (clinical strain 24 (Table S5)) of the same molecule?
A: 16

Q: What about the MBC/MIC (clinical strain 25 (Table S5)) of the same molecule?
A: 16

Q: And the MBC/MIC (clinical strain 26 (Table S5))?
A: 16

Q: What about the MBC/MIC (clinical strain 27 (Table S5)) of the same molecule?
A: 16

Q: What about the MBC/MIC (clinical strain 28 (Table S5)) of the same molecule?
A: 16

Q: What about the MBC/MIC (clinical strain 29 (Table S5)) of the same molecule?
A: 16

Q: And the MBC/MIC (clinical strain 30 (Table S5))?
A: 16

Q: And the MBC/MIC (clinical strain 31 (Table S5))?
A: 16

Q: What about the MBC/MIC (clinical strain 32 (Table S5)) of the same molecule?
A: 16

Q: And the MBC/MIC (clinical strain 33 (Table S5))?
A: 16

Q: And the MBC/MIC (clinical strain 34 (Table S5))?
A: 16

Q: And the MBC/MIC (clinical strain 35 (Table S5))?
A: 16

Q: What about the MBC/MIC (clinical strain 36 (Table S5)) of the same molecule?
A: 16

Q: And the MBC/MIC (clinical strain 37 (Table S5))?
A: 16

Q: And the MBC/MIC (clinical strain 38 (Table S5))?
A: 16

Q: What about the MBC/MIC (clinical strain 39 (Table S5)) of the same molecule?
A: 16

Q: What about the MBC/MIC (clinical strain 40 (Table S5)) of the same molecule?
A: 16

Q: And the MBC/MIC (clinical strain 41 (Table S5))?
A: 16

Q: And the MBC/MIC (clinical strain 42 (Table S5))?
A: 16

Q: And the MBC/MIC (clinical strain 43 (Table S5))?
A: 16

Q: And the MBC/MIC (clinical strain 44 (Table S5))?
A: 16

Q: And the MBC/MIC (clinical strain 45 (Table S5))?
A: 16

Q: What about the MBC/MIC (clinical strain 46 (Table S5)) of the same molecule?
A: 16

Q: What about the MBC/MIC (clinical strain 47 (Table S5)) of the same molecule?
A: 16

Q: What about the MBC/MIC (clinical strain 48 (Table S5)) of the same molecule?
A: 16

Q: And the MBC/MIC (clinical strain 49 (Table S5))?
A: 16

Q: What about the MBC/MIC (clinical strain 50 (Table S5)) of the same molecule?
A: 16

Q: What about the MBC/MIC (clinical strain 51 (Table S5)) of the same molecule?
A: 16

Q: What about the MBC/MIC (clinical strain 52 (Table S5)) of the same molecule?
A: 16

Q: What about the MBC/MIC (clinical strain 53 (Table S5)) of the same molecule?
A: 16

Q: What about the MBC/MIC (clinical strain 54 (Table S5)) of the same molecule?
A: 16

Q: What about the MBC/MIC (clinical strain 55 (Table S5)) of the same molecule?
A: 16

Q: And the MBC/MIC (clinical strain 56 (Table S5))?
A: 16

Q: And the MBC/MIC (clinical strain 57 (Table S5))?
A: 16

Q: And the MBC/MIC (clinical strain 58 (Table S5))?
A: 16

Q: What about the MBC/MIC (clinical strain 59 (Table S5)) of the same molecule?
A: 16

Q: What about the MBC/MIC (clinical strain 60 (Table S5)) of the same molecule?
A: 16

Q: What about the MBC/MIC (clinical strain 61 (Table S5)) of the same molecule?
A: 16

Q: What about the MBC/MIC (clinical strain 62 (Table S5)) of the same molecule?
A: 16

Q: What about the MBC/MIC (clinical strain 63 (Table S5)) of the same molecule?
A: 16

Q: What about the MBC/MIC (clinical strain 64 (Table S5)) of the same molecule?
A: 16

Q: And the MBC/MIC (clinical strain 65 (Table S5))?
A: 16

Q: And the MBC/MIC (clinical strain 66 (Table S5))?
A: 16

Q: What about the MBC/MIC (clinical strain 67 (Table S5)) of the same molecule?
A: 16

Q: And the MBC/MIC (clinical strain 68 (Table S5))?
A: 16

Q: And the MBC/MIC (clinical strain 69 (Table S5))?
A: 16

Q: And the MBC/MIC (clinical strain 70 (Table S5))?
A: 16

Q: What about the MBC/MIC (clinical strain 71 (Table S5)) of the same molecule?
A: 16

Q: And the MBC/MIC (clinical strain 72 (Table S5))?
A: 16

Q: What about the MBC/MIC (clinical strain 73 (Table S5)) of the same molecule?
A: 16

Q: And the MBC/MIC (clinical strain 74 (Table S5))?
A: 16

Q: What about the MBC/MIC (clinical strain 75 (Table S5)) of the same molecule?
A: 16

Q: And the MBC/MIC (clinical strain 76 (Table S5))?
A: 16

Q: And the MBC/MIC (clinical strain 77 (Table S5))?
A: 16

Q: And the MBC/MIC (clinical strain 78 (Table S5))?
A: 16

Q: What about the MBC/MIC (clinical strain 79 (Table S5)) of the same molecule?
A: 16

Q: And the MBC/MIC (clinical strain 80 (Table S5))?
A: 16

Q: What about the MBC/MIC (clinical strain 81 (Table S5)) of the same molecule?
A: 16
